Data from US9771325B2, “Tricyclic compounds and preparation thereof” (Council of Scientific & Industrial Research, priority 2014, dated 2017).

Columns and labels:
[1] = tested on: cervical C-33A cancer cell line; experiment: SRB assay for anticancer activity, C-33A; type: cell-based, human; conditions: 48 h; for inhibition at 10 µM: Homo sapiens, read-out: % Inhibition at 10 μM Solution in Cancer Cell Line
[2] = tested on: Lung NCI-H446 cancer cell line; experiment: SRB assay for anticancer activity, NCI-H446; type: cell-based, human; conditions: 48 h; for inhibition at 10 µM: Homo sapiens, read-out: % Inhibition at 10 μM Solution in Cancer Cell Line
[3] = tested on: Ovary PA1 cancer cell line; experiment: SRB assay for anticancer activity, PA1; type: cell-based, human; conditions: 48 h; for inhibition at 10 µM: Homo sapiens, read-out: % Inhibition at 10 μM Solution in Cancer Cell Line
[4] = tested on: Head & Neck KB cancer cell line; experiment: SRB assay for anticancer activity, KB; type: cell-based, human; conditions: 48 h; for inhibition at 10 µM: Homo sapiens, read-out: % Inhibition at 10 μM Solution in Cancer Cell Line
[5] = tested on: Head & Neck (FaDu) cancer cell line; experiment: SRB assay for anticancer activity, FaDu; type: cell-based, human; conditions: 48 h; for inhibition at 10 µM: Homo sapiens, read-out: % Inhibition at 10 μM Solution in Cancer Cell Line
Description: (§1) SRB Assay Protocol for Anticancer Activity:
(§2) Addition of cells: The human cancer cell lines Ovary (SK-OV-3), Lung (A549) and Breast (MCF-7) maintained in RPMI-1640 medium; Cervical (HeLa), Head & Neck (FaDu) and Colorectal adenocarcinoma (SW620) are maintained in DMEM medium. The enumerated cells are dispensed in a 96-well tissue culture plate. Each well receives 100 μl of the cell suspension containing 10,000-20,000 cells (depending upon the nature of cell line). The cells are then incubated at 37° C. in 5% CO2 concentration for 24 h before addition of the test samples/standard drugs.
(§3) Addition of test samples: 100 μl of working solution of the test sample is added to the cell monolayer to give a final concentration 10 μM (pure compound) For each sample, duplicate wells are included.
(§4) Positive (Drug) and Negative (Vehicle) Controls: In every assay plate both positive and vehicle controls are included. In positive control well, adriamycin (Doxorubicin) is added at 10 μM concentration. In vehicle control wells, DMSO is added. In all assay wells the final concentration of DMSO is 0.1%. The plates are then incubated at 37° C. in 5% CO2 concentration for 48 h.
(§5) Addition of SRB and Colorimetric reading: After 48 h incubation, cells attached to substratum of the plate are fixed by adding cold 50% trichloroacetic acid (TCA, 50 μl/well) on top of the medium and incubated at 4° C. for 1 h. After that the plate is gently washed 5 times with slow running tap water via plastic tubing to remove TCA, culture medium and dead cells. The water stream should not be injected very fast or directly on to the bottom of the wells as this can cause cell monolayer to detach. After washing, the plates are allowed to dry in air (plates can be stored for long periods at room temperature after fixing and drying step) […], 50 μl/well of SRB solution is added and left at room temperature for 30 min. At the end of the staining period, unbound SRB is removed by quickly rinsing plates 4-5 times with 1% (v/v) acetic acid. Plates are allowed to air-dry at room temperature (Stained and dried plates can be stored indefinitely at room temperature). 150 μl of 10 mM Tris base solution is added to each well and plate is shaken for 15 min on a gyratory shaker to solubilize the protein-bound dye. Alternatively, if a shaker is unavailable, SRB gets solubilized after 30 min in Tris base solution. Absorbance is measured at 510 nm in a microplate spectrophotometer.
(§6) Percentage of cell growth inhibition in presence of the test sample is calculated as follows: […]

[6] = tested on: Breast (MCF-7) cancer cell line; experiment: SRB assay for anticancer activity, MCF-7; type: cell-based, human; conditions: for inhibition at 10 µM: Homo sapiens, MCF7, 48 h, read-out: % Inhibition at 10 μM Solution in Cancer Cell Line
Description: as §1, §2, §3, §4, §5, §6

[7] = tested on: Lung (A549) cancer cell line; experiment: SRB assay for anticancer activity, A549; type: cell-based, human; conditions: 48 h; for inhibition at 10 µM: Homo sapiens, read-out: % Inhibition at 10 μM Solution in Cancer Cell Line
Description: as §1, §2, §3, §4, §5, §6

[8] = tested on: Colorectal adenocarcinoma (SW620) cell line; experiment: SRB assay for anticancer activity, SW620; type: cell-based, human; conditions: for inhibition at 10 µM: Homo sapiens, SW-620, Colon SW620, 48 h, read-out: % Inhibition at 10 μM Solution in Cancer Cell Line
Description: as §1, §2, §3, §4, §5, §6

[9] = tested on: Breast MDA-MB-231 cancer cell line; experiment: SRB assay for anticancer activity, MDA-MB-231; type: cell-based, human; conditions: 48 h; for inhibition at 10 µM: Homo sapiens, read-out: % Inhibition at 10 μM Solution in Cancer Cell Line
[10] = tested on: Cervical (HeLa) cancer cell line; experiment: SRB assay for anticancer activity, HeLa; type: cell-based, human; conditions: 48 h; for inhibition at 10 µM: Homo sapiens, read-out: % Inhibition at 10 μM Solution in Cancer Cell Line
Description: as §1, §2, §3, §4, §5, §6

[11] = tested on: Ovary (SK-OV-3) cancer cell line; experiment: SRB assay for anticancer activity, SK-OV-3; type: cell-based, human; conditions: for inhibition at 10 µM: Homo sapiens, SK-OV-3, Ovary SKOV3, 48 h, read-out: % Inhibition at 10 μM Solution in Cancer Cell Line
Description: as §1, §2, §3, §4, §5, §6

[12] = tested on: Colon COLO205 cancer cell line; experiment: SRB assay for anticancer activity, COLO205; type: cell-based, human; conditions: for inhibition at 10 µM: Homo sapiens, COLO 205, 48 h, read-out: % Inhibition at 10 μM Solution in Cancer Cell Line
[13] = tested on: Ovary NIH:OVACR-3 cancer cell line; experiment: SRB assay for anticancer activity, NIH:OVACR-3; type: cell-based, human; conditions: 48 h; for inhibition at 10 µM: Homo sapiens, read-out: % Inhibition at 10 μM Solution in Cancer Cell Line
[14] = tested on: Colon DLD-1 cancer cell line; experiment: SRB assay for anticancer activity, DLD-1; type: cell-based, human; conditions: 48 h; for inhibition at 10 µM: Homo sapiens, read-out: % Inhibition at 10 μM Solution in Cancer Cell Line
[15] = tested on: Lung NCI-H358 cancer cell line; experiment: SRB assay for anticancer activity, NCI-H358; type: cell-based, human; conditions: 48 h; for inhibition at 10 µM: Homo sapiens, read-out: % Inhibition at 10 μM Solution in Cancer Cell Line
KB cells = conditions: Chinese Chemical Letters 2013, 24, 57-58, read-out: cytotoxicity against KB cells in vitro, IC50; cited from earlier work

| Molecule | inhibition at 10 µM [1] [%] | inhibition at 10 µM [2] [%] | inhibition at 10 µM [3] [%] | inhibition at 10 µM [4] [%] | inhibition at 10 µM [5] [%] | inhibition at 10 µM [6] [%] | inhibition at 10 µM [7] [%] | inhibition at 10 µM [8] [%] | inhibition at 10 µM [9] [%] | inhibition at 10 µM [10] [%] | inhibition at 10 µM [11] [%] | inhibition at 10 µM [12] [%] | inhibition at 10 µM [13] [%] | inhibition at 10 µM [14] [%] | inhibition at 10 µM [15] [%] | other results |
| --- | --- | --- | --- | --- | --- | --- | --- | --- | --- | --- | --- | --- | --- | --- | --- | --- |
| 8-Hydroxy-4,7,7-trimethyl-7,8-dihydrocyclopenta[e]isoindole-1,3(2H,6H)-dione [Compound 8] | – | – | – | – | – | – | – | – | – | – | – | – | – | – | – | % Inhibition at 10 μM Solution in Cancer Cell Line [1]: 0.00%; % Inhibition at 10 μM Solution in Cancer Cell Line [2]: 0.00%; % Inhibition at 10 μM Solution in Cancer Cell Line [3]: 0.00%; % Inhibition at 10 μM Solution in Cancer Cell Line [4]: 0.00%; % Inhibition at 10 μM Solution in Cancer Cell Line [5]: 2.10%; % Inhibition at 10 μM Solution in Cancer Cell Line ([6]; 48 h): 4.31%; % Inhibition at 10 μM Solution in Cancer Cell Line [7]: 6.05%; % Inhibition at 10 μM Solution in Cancer Cell Line ([8]; Colon SW620, 48 h): −11.48%; % Inhibition at 10 μM Solution in Cancer Cell Line [9]: 0.00%; % Inhibition at 10 μM Solution in Cancer Cell Line [10]: 29.05%; % Inhibition at 10 μM Solution in Cancer Cell Line ([11]; Ovary SKOV3, 48 h): 5.55%; % Inhibition at 10 μM Solution in Cancer Cell Line ([12]; 48 h): 0.00%; % Inhibition at 10 μM Solution in Cancer Cell Line [13]: 0.00%; % Inhibition at 10 μM Solution in Cancer Cell Line [14]: 0.00%; % Inhibition at 10 μM Solution in Cancer Cell Line [15]: 0.00% |
| Cc1cc2c(c3c1C(=O)NC3=O)C(O)C(C)(C)C2 (stereo not shown) [Compound 1] | – | – | – | – | – | – | – | – | – | – | – | – | – | – | – | IC50 (KB cells): 16.6 µM |
| CCOC(=O)C1(C(=O)OCC)Cc2ccc3c(c2C1)C(=O)NC3=O [Compound 18, Diethyl 1,3-dioxo-2,3,6,8-tetrahydrocyclopenta[e]isoindole-7,7(1H)-dicarboxylate] | 0 | 0 | 0 | 0 | -0.05 | 6.84 | 28.8 | 13.2 | 0 | 20.9 | -1.46 | 0 | 0 | 0 | 0 | – |
| CCOC(=O)C1(C(=O)OCC)Cc2ccc3c(c2C1)C(=O)N(CCO)C3=O [Compound 19, Diethyl 2-(2-hydroxyethyl)-1,3-dioxo-2,3,6,8-tetrahydrocyclopenta[e]isoindole-7,7(1H)-dicarboxylate] | 0 | 0 | 0 | 0 | 0.16 | 3.44 | 29 | 15.2 | 0 | 25.7 | -3.91 | 0 | 0 | 0 | 0 | – |
| CCOC(=O)C1(C(=O)OCC)Cc2cc(C)c3c(c2C1)C(=O)NC3=O [Compound 22, Diethyl 4-methyl-1,3-dioxo-2,3,6,8-tetrahydrocyclopenta[e]isoindole-7,7(1H)-dicarboxylate] | 0 | 0 | 0 | 0 | 10.3 | 10.4 | 27 | 15.4 | 0 | 34.3 | -9.36 | 0 | 0 | 0 | 0 | – |
| CCOC(=O)C1(C(=O)OCC)Cc2cc(C)c3c(c2C1)C(=O)N(CCO)C3=O [Compound 23, Diethyl 2-(2-hydroxyethyl)-4-methyl-1,3-dioxo-2,3,6,8-tetrahydrocyclopenta[e]isoindole-7,7(1H)-dicarboxylate] | 0 | 0 | 0 | 0 | 11 | 8.24 | 19.2 | 13.3 | 0 | 31 | -7.23 | 0 | 0 | 0 | 0 | – |
| CCOC(=O)C1(C(=O)OCC)Cc2cc(C)c3c(c2C1)C(=O)N(S(=O)(=O)c1ccc(F)cc1)C3=O [Compound 24, Diethyl 2-((4-fluorophenyl)sulfonyl)-4-methyl-1,3-dioxo-2,3,6,8-tetrahydrocyclopenta[e]isoindole-7,7(1H)-dicarboxylate] | 0 | 0 | 0 | 0 | 59.4 | 34.9 | 48.2 | 50.5 | 0 | 65.2 | 21.2 | 0 | 0 | 0 | 0 | – |
| COc1cccc2c1C(=O)c1c(O)c3c(c(O)c1C2=O)C[C@@](O)(C(=O)CO)C[C@@H]3O[C@H]1C[C@H](N)[C@H](O)[C@H](C)O1 [Doxorubicin, reference compound] | 0 | 0 | 0 | 0 | 89.6 | 66.7 | 69.1 | 80.3 | 0 | 89.5 | 58 | 0 | 0 | 0 | 0 | – |
